Data: US9296734B2 (AMGEN INC., priority 2013, dated 2016)
Read-outs that look alike come from different tables or passages of the source.

Key:
[1] = molecular target: Beta Secretase enzyme (BACE) (Homo sapiens (Human), UniProt P56817); assay: In vitro enzymatic BACE FRET assay; format: biochemical; conditions: read-out: BACE 1 FRET assay IC50
How it was run: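 A quenched fluorophore-peptide spanning the BACE cleavage site served as substrate at 50 nM, with one-hour incubation in pH 4.2 acetate buffer containing 100 uM genapol and 10% DMSO final. Fluorescence was measured after quenching with Tris to neutral pH.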

[2] = test system: Aβ40 in conditioned medium of cells stably expressing Amyloid Precursor Protein (APP); assay: In vitro BACE cell-based assay (Aβ40 sandwich ELISA); conditions: Homo sapiens
How it was run: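 Aβ40 in supernatants was measured by time-resolved fluorescence sandwich ELISA using pAb40 capture and biotinylated 6E10 detection, with antibody incubations at 4 °C. Stable APP cells were exposed to compounds for 24 h in a 10-point series (top dose 100 or 10 µM, 0.1% DMSO). IC50 was fitted from the concentration-response.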

Cathepsin D (Cat D) = Cathepsin D (Cat D) (Homo sapiens (Human), UniProt P07339); assay: In vitro enzymatic Cathepsin D (Cat D) FRET assay; format: biochemical; conditions: read-out: CatD IC50
How it was run: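 CHO-expressed recombinant Cat D cleaves a fluorophore/quencher FRET peptide (20 nM) in 0.05 M citrate pH 3.5, 5 mM CHAPS, 10% DMSO final, over 1 h. Tris addition neutralizes pH to stop the reaction; fluorescence read at excitation 500 nm, emission 580 nm.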

[3] = HEK293, average IC50, HEK cells, read-out: HEK cell assay IC50
[4] = average IC50, BACE enzyme assay
[5] = HEK293, average IC50, HEK cell assay, read-out: HEK cell assay IC50
[6] = average IC50, cathepsin D enzyme assay
[7] = HEK293, read-out: HEK cell assay IC50
[8] = HEK293, HEK cells, average, read-out: HEK cell assay IC50

Beta Secretase enzyme (BACE), sequence (P56817 46-501): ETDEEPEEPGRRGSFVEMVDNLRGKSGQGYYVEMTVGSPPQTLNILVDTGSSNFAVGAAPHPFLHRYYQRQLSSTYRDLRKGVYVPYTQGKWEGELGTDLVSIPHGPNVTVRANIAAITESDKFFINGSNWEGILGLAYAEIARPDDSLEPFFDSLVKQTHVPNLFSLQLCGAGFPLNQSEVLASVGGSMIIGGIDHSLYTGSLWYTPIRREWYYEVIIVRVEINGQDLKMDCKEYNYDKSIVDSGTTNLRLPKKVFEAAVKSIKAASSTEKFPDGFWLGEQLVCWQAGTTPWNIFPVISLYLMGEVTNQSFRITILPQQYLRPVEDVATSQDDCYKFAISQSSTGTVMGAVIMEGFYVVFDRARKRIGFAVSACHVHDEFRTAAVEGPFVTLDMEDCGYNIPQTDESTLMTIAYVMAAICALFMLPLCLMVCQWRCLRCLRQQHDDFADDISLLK
Cathepsin D (Cat D), sequence (P07339 65-412, species assumed): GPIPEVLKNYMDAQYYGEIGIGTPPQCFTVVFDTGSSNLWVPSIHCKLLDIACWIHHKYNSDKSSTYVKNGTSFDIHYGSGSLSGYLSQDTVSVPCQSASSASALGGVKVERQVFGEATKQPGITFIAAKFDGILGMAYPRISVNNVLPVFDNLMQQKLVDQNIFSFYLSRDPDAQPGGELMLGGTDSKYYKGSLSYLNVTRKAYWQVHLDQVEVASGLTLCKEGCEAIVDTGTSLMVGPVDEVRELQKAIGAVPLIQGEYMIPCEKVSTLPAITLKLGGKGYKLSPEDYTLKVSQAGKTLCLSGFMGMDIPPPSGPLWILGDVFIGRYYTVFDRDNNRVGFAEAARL

Compound	IC50 [1, 4]	IC50 [2, 5]	IC50 (Cathepsin D (Cat D); [6])	further results
NC1=N[C@](CF)(c2cc(Oc3cc(Br)cc(Cl)n3)ccc2F)C[C@@H](C(F)(F)F)O1 [Example 98]				IC50 ([1]; average IC50): 1.95 µM; IC50 [2, 3]: 2.9 µM; IC50 (Cathepsin D (Cat D); average IC50): > 400 µM
NC1=N[C@](CF)(c2cc(-c3nc4ccc(Cl)cc4o3)ccc2F)C[C@@H](C(F)(F)F)O1 [Example 105, (4S,6S)-4-(5-(6-chlorobenzo[d]oxazol-2-yl)-2-fluorophenyl)-4-(fluoromethyl)-6-(trifluoromethyl)-5,6-dihydro-4H-1,3-oxazin-2-amine]	0.542 µM		> 44.4 µM	IC50 [2, 7]: 2.81 µM
N#Cc1cccnc1Oc1ccc(F)c([C@]2(CF)C[C@@H](C(F)(F)F)OC(N)=N2)c1 [Example 107, 2-(3-((4S,6S)-2-amino-4-(fluoromethyl)-6-(trifluoromethyl)-5,6-dihydro-4H-1,3-oxazin-4-yl)-4-fluorophenoxy)nicotinonitrile]				IC50 ([1]; average IC50): 5.87 µM; IC50 [2, 7]: 3.61 µM; IC50 (Cathepsin D (Cat D); average IC50): 1400 µM
NC1=N[C@](CF)(c2cc(Oc3ncccn3)ccc2F)C[C@@H](C(F)(F)F)O1 [Example 108, (4S,6S)-4-(2-fluoro-5-(pyrimidin-2-yloxy)phenyl)-4-(fluoromethyl)-6-(trifluoromethyl)-5,6-dihydro-4H-1,3-oxazin-2-amine]				IC50 ([1]; average IC50): 9.97 µM; IC50 [2, 3]: > 15.6 µM; IC50 (Cathepsin D (Cat D); average IC50): > 400 µM
NC1=N[C@](CF)(c2cc(Oc3nccc(C(F)(F)F)c3F)ccc2F)C[C@@H](C(F)(F)F)O1 [Example 109, (4S,6S)-4-(2-fluoro-5-((3-fluoro-4-(trifluoromethyl)pyridin-2-yl)oxy)phenyl)-4-(fluoromethyl)-6-(trifluoromethyl)-5,6-dihydro-4H-1,3-oxazin-2-amine]				IC50 ([1]; average IC50): 9.52 µM; IC50 [2, 7]: 8.18 µM; IC50 (Cathepsin D (Cat D); average IC50): > 400 µM
NC1=N[C@](CF)(c2cc(Oc3cccc(C(F)(F)F)n3)ccc2F)C[C@@H](C(F)(F)F)O1 [Example 110, (4S,6S)-4-(2-fluoro-5-((6-(trifluoromethyl)pyridin-2-yl)oxy)phenyl)-4-(fluoromethyl)-6-(trifluoromethyl)-5,6-dihydro-4H-1,3-oxazin-2-amine]				IC50 ([1]; average IC50): 3.41 µM; IC50 [2, 3]: 4.56 µM; IC50 (Cathepsin D (Cat D); average IC50): 1820 µM
C[Si](C)(C)C#Cc1ccc(-c2ccc(F)c([C@]3(CF)C[C@@H](C(F)(F)F)OC(N)=N3)c2)cn1 [Example 111, (4S,6S)-4-(2-fluoro-5-(6-((trimethylsilyl)ethynyl)pyridin-3-yl)phenyl)-4-(fluoromethyl)-6-(trifluoromethyl)-5,6-dihydro-4H-1,3-oxazin-2-amine]	37.2 µM		> 400 µM	IC50 [2, 7]: > 15.6 µM
NC1=N[C@](CF)(c2cc(-c3ncc4cc(F)ccc4n3)ccc2F)C[C@@H](C(F)(F)F)O1 [Example 114, (4S,6S)-4-(2-fluoro-5-(6-fluoroquinazolin-2-yl)phenyl)-4-(fluoromethyl)-6-(trifluoromethyl)-5,6-dihydro-4H-1,3-oxazin-2-amine]	> 40 µM	> 15.6 µM	758 µM	
NC1=N[C@](CF)(c2cc(-c3ccc4cc(F)ccc4n3)ccc2F)C[C@@H](C(F)(F)F)O1 [Example 116, (4S,6S)-4-(2-fluoro-5-(6-fluoroquinolin-2-yl)phenyl)-4-(fluoromethyl)-6-(trifluoromethyl)-5,6-dihydro-4H-1,3-oxazin-2-amine]	> 40 µM	> 15.6 µM	> 133 µM	
NC1=N[C@](CF)(c2cc(-c3ccc4ccc(F)cc4n3)ccc2F)C[C@@H](C(F)(F)F)O1 [Example 117, (4S,6S)-4-(2-fluoro-5-(7-fluoroquinolin-2-yl)phenyl)-4-(fluoromethyl)-6-(trifluoromethyl)-5,6-dihydro-4H-1,3-oxazin-2-amine]	> 40 µM	> 15.6 µM	> 133 µM	
NC1=N[C@](CF)(c2cc(-c3cncc(-c4nnco4)c3)ccc2F)C[C@@H](C(F)(F)F)O1 [Example 118, (4S,6S)-4-(5-(5-(1,3,4-oxadiazol-2-yl)pyridin-3-yl)-2-fluorophenyl)-4-(fluoromethyl)-6-(trifluoromethyl)-5,6-dihydro-4H-1,3-oxazin-2-amine]	8.36 µM	> 15.6 µM	454 µM	
N#Cc1ccc(C#Cc2ccc(F)c([C@]3(CF)C[C@@H](C(F)(F)F)OC(N)=N3)c2)nc1 [Example 125, 6-((3-((4S,6S)-2-amino-4-(fluoromethyl)-6-(trifluoromethyl)-5,6-dihydro-4H-1,3-oxazin-4-yl)-4-fluorophenyl)ethynyl)nicotinonitrile]				IC50 ([1]; average): 0.509 µM; IC50 [2, 8]: 0.509 µM; IC50 (Cathepsin D (Cat D); average): > 400 µM
CNC(=O)c1ccc(C#Cc2ccc(F)c([C@]3(CF)C[C@@H](C(F)(F)F)OC(N)=N3)c2)nc1 [Example 126, 6-((3-((4S,6S)-2-amino-4-(fluoromethyl)-6-(trifluoromethyl)-5,6-dihydro-4H-1,3-oxazin-4-yl)-4-fluorophenyl)ethynyl)-N-methylnicotinamide]				IC50 ([1]; average): 26.6 µM; IC50 [2, 8]: 7.46 µM; IC50 (Cathepsin D (Cat D); average): > 400 µM

Continued, in another order:

IC50 [1, 4]	IC50 [2, 5]	IC50 (Cathepsin D (Cat D); [6])	Compound	further results
1.57 µM	3.26 µM	1930 µM	NC1=N[C@](CF)(c2cc(Oc3cccc(Cl)n3)ccc2F)C[C@@H](C(F)(F)F)O1 [Example 100, (4S,6S)-4-(5-((6-chloropyridin-2-yl)oxy)-2-fluorophenyl)-4-(fluoromethyl)-6-(trifluoromethyl)-5,6-dihydro-4H-1,3-oxazin-2-amine]	
> 40 µM	> 15.6 µM	> 400 µM	C#Cc1ccc(-c2ccc(F)c([C@]3(CF)C[C@@H](C(F)(F)F)OC(N)=N3)c2)cn1 [Example 112, (4S,6S)-4-(5-(6-ethynylpyridin-3-yl)-2-fluorophenyl)-4-(fluoromethyl)-6-(trifluoromethyl)-5,6-dihydro-4H-1,3-oxazin-2-amine]	
27.4 µM	> 15.6 µM	170 µM	CC#Cc1ccc(-c2ccc(F)c([C@]3(CF)C[C@@H](C(F)(F)F)OC(N)=N3)c2)cn1 [Example 113, (4S,6S)-4-(2-fluoro-5-(6-(prop-1-yn-1-yl)pyridin-3-yl)phenyl)-4-(fluoromethyl)-6-(trifluoromethyl)-5,6-dihydro-4H-1,3-oxazin-2-amine]	
7.88 µM	3.16 µM	316 µM	NC1=N[C@](CF)(c2cc(Nc3cc(-c4ccccc4)ccn3)ccc2F)C[C@@H](C(F)(F)F)O1 [Example 115, (4S,6S)-4-(2-fluoro-5-((4-phenylpyridin-2-yl)amino)phenyl)-4-(fluoromethyl)-6-(trifluoromethyl)-5,6-dihydro-4H-1,3-oxazin-2-amine]	
55.8 µM	2.08 µM	> 400 µM	COC1CCN(C(=O)Nc2ccc(F)c([C@]3(C)C[C@@H](C(F)(F)F)OC(N)=N3)c2)CC1 [Example 119, N-(3-((4S,6S)-2-amino-4-methyl-6-(trifluoromethyl)-5,6-dihydro-4H-1,3-oxazin-4-yl)-4-fluorophenyl)-4-methoxypiperidine-1-carboxamide]	
11.5 µM	0.908 µM	> 400 µM	C[C@@]1(c2cc(NC(=O)N3CC=CCC3)ccc2F)C[C@@H](C(F)(F)F)OC(N)=N1 [Example 123, N-(3-((4S,6S)-2-amino-4-methyl-6-(trifluoromethyl)-5,6-dihydro-4H-1,3-oxazin-4-yl)-4-fluorophenyl)-5,6-dihydropyridine-1(2H)-carboxamide]	
